Experiments:
H3K56ac = test: Histone H3 Lys 56 acetylation (H3K56ac) western blotting; assay type: cell-based, human; details: HCT116 cells, 24 h, screen at 0.1, 1, 10 μM; relative to DMSO, CI-994 and 1 at 10 μM
Excerpt: (§1) Supporting Information: Biology
(§2) Representative blots of two independent biological replicates.

HDAC1 = HDAC1 (Homo sapiens, UniProt Q13547); test: HDAC1 degradation by quantitative western blotting in HCT116 cells; details: HCT116 cells, 24 h, 0.1, 1 and 10 μM; compared with 1 at 10 μM
Chain of HDAC1 (Q13547 whole entry): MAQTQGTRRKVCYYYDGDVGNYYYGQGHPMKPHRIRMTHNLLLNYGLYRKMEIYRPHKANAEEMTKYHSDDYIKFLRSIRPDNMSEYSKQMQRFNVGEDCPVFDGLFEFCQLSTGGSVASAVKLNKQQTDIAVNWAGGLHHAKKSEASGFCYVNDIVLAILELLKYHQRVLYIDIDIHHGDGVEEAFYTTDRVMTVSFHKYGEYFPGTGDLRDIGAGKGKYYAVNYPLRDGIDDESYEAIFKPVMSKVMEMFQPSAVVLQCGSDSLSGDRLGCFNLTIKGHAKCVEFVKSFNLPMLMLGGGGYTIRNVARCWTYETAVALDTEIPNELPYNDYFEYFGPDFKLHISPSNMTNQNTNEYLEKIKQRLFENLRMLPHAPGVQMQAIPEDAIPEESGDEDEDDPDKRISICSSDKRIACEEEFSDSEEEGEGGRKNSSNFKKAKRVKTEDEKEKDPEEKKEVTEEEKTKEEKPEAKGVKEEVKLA
Experimental: (§3) Initially, each PROTAC was tested at 0.1, 1, and 10 μM in HCT116 cells for 24 h; then, cell extracts were prepared and evaluated for HDAC1/2 and 3 degradation by quantitative western blotting.
(§4) This cell line was incubated at 37 °C with 5% CO2.
(§5) HCT116 cells were seeded into 6-well plates (4 × 10^5 cells/well for 24 h, 2 × 10^5 cells/well for 48 h) for 24 h and then treated with DMSO or compounds at the indicated concentrations in fresh medium (5 mL total). After desired treatment time, the cells were harvested and then lysed in lysis buffer (50 mM Tris-HCl, 150 mM NaCl, 0.5% NP-40, 0.5% Triton X-100) supplemented with a protease inhibitor (Sigma, P8340). The suspension was incubated on ice for 30 min and centrifuged (18,000 rcf, 15 min, 4 °C); then, the supernatant was collected, and protein concentrations were quantified via Bradford Assay using Protein Assay Dye Reagent Concentrate (BIO-RAD). […] PageRuler Plus Prestained Ladder was used for size standards. After gel electrophoresis at 140 V for 90 min, the separated proteins were transferred onto a nitrocellulose membrane at 30 V for 60 min. The membranes were probed with primary antibodies (see the Supporting Information) for 60−90 min. Blots were developed with complimentary IRDye-conjugated secondary antibodies, and the bands were visualized using an Odyssey infrared imaging system. Image processing and band intensity quantification were performed using Image Studio Lite.

HDAC2 = HDAC2 (Homo sapiens, UniProt Q92769); test: HDAC2 degradation by quantitative western blotting in HCT116 cells; details: for HDAC2 degradation in initial screen (in words): HCT116 cells, 24 h, 0.1, 1 and 10 μM, compared with 1 at 10 μM
Chain of HDAC2 (Q92769 whole entry): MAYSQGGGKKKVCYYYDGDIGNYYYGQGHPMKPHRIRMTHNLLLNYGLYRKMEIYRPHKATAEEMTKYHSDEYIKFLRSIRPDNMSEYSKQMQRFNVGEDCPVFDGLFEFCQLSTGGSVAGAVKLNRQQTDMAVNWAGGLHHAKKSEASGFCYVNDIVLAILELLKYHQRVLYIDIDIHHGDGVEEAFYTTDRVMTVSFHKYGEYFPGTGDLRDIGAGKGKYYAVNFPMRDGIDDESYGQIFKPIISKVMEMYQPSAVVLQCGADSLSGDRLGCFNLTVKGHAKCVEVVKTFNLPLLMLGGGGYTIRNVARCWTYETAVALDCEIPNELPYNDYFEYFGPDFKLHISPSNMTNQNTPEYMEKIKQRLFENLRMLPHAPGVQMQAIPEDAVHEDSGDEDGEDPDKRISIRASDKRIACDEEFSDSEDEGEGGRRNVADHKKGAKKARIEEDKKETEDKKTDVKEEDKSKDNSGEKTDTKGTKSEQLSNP
Experimental: as §3, §4, §5

HDAC3 = HDAC3 (Homo sapiens, UniProt O15379); test: HDAC3 degradation by quantitative western blotting in HCT116 cells; details: HCT116 cells, 24 h, 0.1, 1 and 10 μM; compared with 1 at 10 μM
Chain of HDAC3 (O15379 whole entry): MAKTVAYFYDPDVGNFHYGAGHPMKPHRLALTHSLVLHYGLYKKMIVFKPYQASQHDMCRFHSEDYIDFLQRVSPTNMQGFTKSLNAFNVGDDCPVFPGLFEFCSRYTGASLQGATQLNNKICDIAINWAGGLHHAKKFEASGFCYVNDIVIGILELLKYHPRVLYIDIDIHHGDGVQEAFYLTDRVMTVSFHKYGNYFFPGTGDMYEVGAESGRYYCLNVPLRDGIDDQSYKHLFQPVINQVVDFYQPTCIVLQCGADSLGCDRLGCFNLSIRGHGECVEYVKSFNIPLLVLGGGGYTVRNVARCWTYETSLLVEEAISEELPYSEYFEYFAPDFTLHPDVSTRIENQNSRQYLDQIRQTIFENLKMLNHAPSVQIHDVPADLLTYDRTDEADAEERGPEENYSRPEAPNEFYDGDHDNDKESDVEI
Chain of HDAC3 (Q9Y618 389-480 partner limits assumed): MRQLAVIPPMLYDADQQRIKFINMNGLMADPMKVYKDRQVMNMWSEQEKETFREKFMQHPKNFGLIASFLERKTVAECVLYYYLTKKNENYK
Experimental: as §3, §4, §5

SIN3A = SIN3A protein levels by western blotting; assay type: cell-based, human; details: HCT116 cells
Experimental: as §1, §2
Figure S6. Representative Western blot of HDAC1/2/3 levels after 24 hours and 48 hours with 1
(JPS004), 7 (JPS014) and 9 (JPS016), and bar graph representation of HDAC1-3, LSD1 and Sin3a
protein levels after 24 hours and 48 hours as the average of three independent biological replicates.
(also on this page, place not known: HDAC1 24hHDAC2 24hHDAC3 24hHDAC1 48hHDAC2 48hHDAC3 %Protein Levels Remaining (Relative to DMSO) %Protein Levels Remaining (Relative to DMSO))

HCT116 cells [1] = test: CellTiter-Glo 2.0 cell viability assay; assay type: cell-based, human; details: for EC50: Homo sapiens, HCT-116, 48 h
Experimental: CellTiter-Glo 2.0 Reagent (Promega UK Ltd, G9242) was equilibrated to room temperature and added to the wells in a ratio of 1 volume reagent:5 volumes medium. Background luminescence was determined using medium alone plus reagent. The plates were shaken on an orbital shaker for 2 min to induce cell lysis and then incubated in the dark at room temperature for 10 min to stabilize the luminescent signal. Luminescence was captured on a CLARIOstar plate reader (BMG Labtech Ltd, UK) at 22 °C to give relative luminescence units and analyzed using BMG Labtech software. EC50 values were calculated by nonlinear regression (Hill plot) and log (inhibitor) versus response—variable slopes (four parameters) using GraphPad Prism 9 software. Each compound dose response was repeated as four independent biological replicates (n = 4).

HCT116 cells [2] = test: Apoptosis flow cytometry assay (sub-G1 population); assay type: cell-based, human; details: 10 μM, after 24 h
Experimental: HCT116 cells were seeded (5 × 10^5 cells/plate) into 6 cm tissue culture plates for 24 h and then treated with 10 μM compounds (with 0.1% DMSO vehicle) or 0.1% DMSO control in fresh medium (5 mL total). The cells were then exposed to the compounds (10 μM) for 24 or 48 h. To harvest the cells, the medium was transferred from each sample plate to 15 mL centrifuge tubes. Each well was washed with 1 mL of phosphate-buffered saline (PBS) and the PBS was transferred to the corresponding 15 mL centrifuge tube. The plates were trypsinized, 2 mL of medium was added, and the cells and medium were transferred to the corresponding 15 mL centrifuge tubes. The harvested cells were pelleted by centrifugation (200g, 5 min, 4 °C), washed with 1 mL PBS, and then pelleted again by centrifugation (200g, 5 min, 4 °C). The supernatant was discarded, and the pellets resuspended in 1 mL of 70% ethanol (ice-cold) to fix the cells. Samples were stored at 4 °C and analyzed within two weeks. PBS (1 mL) was added to each sample tube containing cells fixed in 70% ethanol. The cells were pelleted by centrifugation (200g, 5 min, 4 °C), and the PBS wash was repeated. The supernatant was discarded, and the pellet was resuspended in 50 μL of RNase A (1 μg/mL, Thermo Scientific, EN0531) and left at room temperature for 10 min to digest contaminating RNA. A total of 500 μL of PI stain (50 μg/mL, Invitrogen, P3566) was added to each tube, and the tubes were incubated in the dark, at room temperature, for 30 min. Results were acquired on a BD FACSCanto II flow cytometer and analyzed using BD FACSdiva software. Sub-G1 population was calculated as a percentage of total cell population. Two independent biological replicates were performed.

| SMILES | H3K56ac levels (in words) (H3K56ac) | HDAC1 degradation in initial screen (in words) (HDAC1) | HDAC2 degradation in initial screen (in words) (HDAC2) | HDAC3 degradation in initial screen (in words) (HDAC3) | further results |
| --- | --- | --- | --- | --- | --- |
| Cc1ncsc1-c1ccc(CNC(=O)[C@@H]2C[C@@H](O)CN2C(=O)[C@@H](NC(=O)COCCOCCOCC(=O)Nc2ccc(C(=O)Nc3ccccc3N)cc2)C(C)(C)C)cc1 [Compound 11, (2S,4R)-1-((S)-14-((4-((2-Aminophenyl)carbamoyl)phenyl)-amino)-2-(tert-butyl)-4,14-dioxo-6,9,12-trioxa-3-azatetradecanoyl)-4-hydroxy-N-(4-(4-methylthiazol-5-yl)benzyl)pyrrolidine-2-carboxamide] | did not increase H3K56ac levels compared to the dimethyl sulfoxide (DMSO) control | almost complete loss of HDAC1/2 degradation | almost complete loss of HDAC1/2 degradation | generally compromised |  |
| CC(=O)Nc1ccc(C(=O)Nc2ccccc2N)cc1 [CI-994, reference compound] |  |  |  |  | SIN3A levels (in words) (SIN3A; especially after 48 h): significantly reduced |
| Cc1ncsc1-c1ccc(CNC(=O)[C@@H]2C[C@@H](O)CN2C(=O)[C@@H](NC(=O)CCCCCCCCOCC(=O)Nc2ccc(C(=O)Nc3ccccc3N)cc2)C(C)(C)C)cc1 [Compound 7, (2S,4R)-1-((S)-2-(9-(2-((4-((2-Aminophenyl)carbamoyl)phenyl)-amino)-2-oxoethoxy)nonanamido)-3,3-dimethylbutanoyl)-4-hydroxy-N-(4-(4-methylthiazol-5-yl)benzyl)pyrrolidine-2-carboxamide] | increased H3K56ac to comparable or greater levels than CI-994 and 1 |  |  |  | EC50 (HCT116 cells [1]): 7.3 ± 0.5 µM; SIN3A levels (abundance) (SIN3A; 10 μM, after 24 h): 50 % abundance; Percentage of cells in sub-G1 phase (in words) (HCT116 cells [2]): highest percentage of cells in the sub-G1 phase |
| Cc1ncsc1-c1ccc(CNC(=O)[C@@H]2C[C@@H](O)CN2C(=O)[C@@H](NC(=O)CCCCCCCCCCC(=O)Nc2ccc(C(=O)Nc3ccccc3N)cc2)C(C)(C)C)cc1 [Compound 1, N1-(4-((2-Aminophenyl)carbamoyl)phenyl)-N12-((S)-1-((2S,4R)-4-hydroxy-2-((4-(4-methylthiazol-5-yl)benzyl)carbamoyl)pyrrolidin-1-yl)-3,3-dimethyl-1-oxobutan-2-yl)dodecanediamide] |  |  |  |  | EC50 (HCT116 cells [1]; 48 h): 4.3 ± 0.5 µM |
| Cc1ncsc1-c1ccc(CNC(=O)[C@@H]2C[C@@H](O)CN2C(=O)[C@@H](NC(=O)COCCOCC(=O)Nc2ccc(C(=O)Nc3ccccc3N)cc2)C(C)(C)C)cc1 [Compound 10, (2S,4R)-1-((S)-2-(2-(2-(2-((4-((2-Aminophenyl)carbamoyl)-phenyl)amino)-2-oxoethoxy)ethoxy)acetamido)-3,3-dimethylbutanoyl)-4-hydroxy-N-(4-(4-methylthiazol-5-yl)benzyl)pyrrolidine-2-carboxamide] | did not increase H3K56ac levels compared to the dimethyl sulfoxide (DMSO) control | almost complete loss of HDAC1/2 degradation | almost complete loss of HDAC1/2 degradation | generally compromised |  |
| Cc1ncsc1-c1ccc(CNC(=O)[C@@H]2C[C@@H](O)CN2C(=O)[C@@H](NC(=O)CCCN2CCN(CCCC(=O)Nc3ccc(C(=O)Nc4ccccc4N)cc3)CC2)C(C)(C)C)cc1 [Compound 13, (2S,4R)-1-((S)-2-(4-(4-(4-((4-((2-Aminophenyl)carbamoyl)-phenyl)amino)-4-oxobutyl)piperazin-1-yl)butanamido)-3,3-dimethylbutanoyl)-4-hydroxy-N-(4-(4-methylthiazol-5-yl)benzyl)-pyrrolidine-2-carboxamide] | did not increase H3K56ac levels compared to the dimethyl sulfoxide (DMSO) control | almost complete loss of HDAC1/2 degradation | almost complete loss of HDAC1/2 degradation | generally compromised |  |
| Cc1ncsc1-c1ccc(CNC(=O)[C@@H]2C[C@@H](O)CN2C(=O)[C@@H](NC(=O)COCCCCCCCCCOCC(=O)Nc2ccc(C(=O)Nc3ccc(F)cc3N)cc2)C(C)(C)C)cc1 [Compound 17, (2S,4R)-1-((S)-2-(2-((9-(2-((4-((2-Amino-4-fluorophenyl)-carbamoyl)phenyl)amino)-2-oxoethoxy)nonyl)oxy)acetamido)-3,3-dimethylbutanoyl)-4-hydroxy-N-(4-(4-methylthiazol-5-yl)-benzyl)pyrrolidine-2-carboxamide] | greater than twofold increase in H3K56ac compared to the DMSO control | significant HDAC1 degradation was also still observed at 1 μM |  | HDAC3 degradation was also enhanced at 1 μM compared to 1 |  |
| Cc1ncsc1-c1ccc(CNC(=O)[C@@H]2C[C@@H](O)CN2C(=O)[C@@H](NC(=O)C2(F)CC2)C(C)(C)C)c(OCCCCCCCCCCCC(=O)Nc2ccc(C(=O)Nc3ccccc3N)cc2)c1 [Compound 22, (2S,4R)-N-(2-((12-((4-((2-Aminophenyl)carbamoyl)phenyl)-amino)-12-oxododecyl)oxy)-4-(4-methylthiazol-5-yl)benzyl)-1-((S)-2-(1-fluorocyclopropane-1-carboxamido)-3,3-dimethylbutanoyl)-4-hydroxypyrrolidine-2-carboxamide] | did not alter H3K56ac levels |  | reduction in HDAC1 and HDAC2 degradation compared to 1 |  | Effect on cell viability (in words) (HCT116 cells [1]; CellTiter-Glo and flow cytometry): little effects on cell viability; Dmax (HDAC2; HCT-116, read-out: Dmax HDAC2): 18% |
| Cc1ncsc1-c1ccc(CNC(=O)[C@@H]2CC(O)CN2C(=O)[C@@H](NC(=O)COCCOCCOCCOCC(=O)Nc2ccc(C(=O)Nc3ccccc3N)cc2)C(C)(C)C)cc1 (stereo in doubt) [Compound 12, N1-(4-((2-Aminophenyl)carbamoyl)phenyl)-N14-((S)-1-((2S,4S)-4-hydroxy-2-((4-(4-methylthiazol-5-yl)benzyl)carbamoyl)-pyrrolidin-1-yl)-3,3-dimethyl-1-oxobutan-2-yl)-3,6,9,12-tetraoxatetradecanediamide] | did not increase H3K56ac levels compared to the dimethyl sulfoxide (DMSO) control | almost complete loss of HDAC1/2 degradation | almost complete loss of HDAC1/2 degradation | generally compromised |  |
